# Measured values as given in patent US20240398824A1, “Inhibition Of Rip Kinases For Treating Neurodegenerative Disorders” (The Johns Hopkins University, priority 2018, published 2024).
# Columns and labels:
# [1] = tested on: primary cortical neurons; experiment: Neuronal toxicity of astrocyte conditioned medium (AlamarBlue and LDH assays); format: cell-based, mouse; conditions: cortical neurons 24 h with ACM, in words
# Protocol: Primary neuron, microglia and astrocyte cell cultures, and α-synuclein PFE's treatment: NOD2 or RIPK2 knockout mice was obtained from Jackson Laboratories (Bar Harbor, ME, USA). Primary cortical neurons were prepared from embryonic day 15.5 pups and cultured in Neurobasal medium (Gibco) supplemented with B-27, 0.5 mM L-glutamine, penicillin and streptomycin (Invitrogen, Grand Island, NY, USA) on tissue-culture plates coated with poly-L-lysine. The neurons were maintained by changing the medium every 3-4 days. Primary microglial and astrocyte cultures were performed as described previously (PMID: 26157004). Whole brains from mouse pups at postnatal day 1 (P1) were obtained. […] The total protein concentration was determined using Pierce BCA protein assay kit (Thermo Scientific), and 15 or 50 μg ml^-1 of total protein was added to mouse primary neurons for the neuronal cell death assay. […] Cell viability was determined by two methods: The AlamarBlue (Invitrogen) and LDH assay (Sigma). Cell death was assessed through AlamarBlue assay, according to the manufacturer's protocol. LDH activity in culture medium, representing relative cell viability and membrane integrity, was measured using the LDH assay kit spectrophotometrically, following the manufacturer's instructions. […]
# [2] = tested on: BV-2 microglia; experiment: Real-time PCR of C1q, IL-6 and TNFα in AβO-activated BV-2 microglia; format: cell-based; parameters: key to mRNA levels of C1q / mRNA levels of IL-6 / mRNA levels of TNFα: relative expression normalized to GAPDH by 2^-ΔΔCt; PBS = 1
# Protocol: Synthetic Abeta1-42 oligomers were generated as previously described (PMID: 27834631). Hydroxyfluroisopropanol (HFIP)-treated synthethic Abeta1-42 peptides (rPeptide, Bogart, GA, USA) were dissolved in dimethylsulfoxide (DMSO) and further diluted in phosphate-buffered saline (PBS) to obtain a 250 μM stock solution. The stock solution was incubated at 4° C. for at least 24 hours and stored at −80° C. until use. Before use, the solution was centrifuged at 12,000 g for 10 minutes and the supernatant was used as an oligomeric Aβ.
# BV-2 microglial cells were cultured in DMEM media. 10^6 of BV-2 microglia in 6 well plate were treated with 2.5 μM of Abeta for 4 hrs. Total RNA from cultured cells was extracted with a RNA isolation kit (Qiagen, Valencia, CA, USA) following manufacturer's instructions. RNA concentration was measured spectrophotometrically using a NanoDrop 2000 (Thermo scientific). Subsequently, 2 μg of total RNA was reverse transcribed to cDNA using the High-Capacity cDNA Reverse Transcription System (Life Technologies, Grand Island, NY, USA). Comparative qPCR was performed using fast SYBR Green Master Mix (Life Technologies) and steponeplus real-time pcr system (Applied Biosystems, Foster City, CA, USA). The expression levels of target genes were normalized to the expression of GAPDH and calculated based on the comparative cycle threshold Ct method^−ΔΔ(2) Ct. (n=3)
# To examine the effect of RIPK2 inhibition, 10^6 of BV-2 microglia in 6 well plate were preincubated with DMSO, GSK583 (1 μM, Medchemexpress), OD361 (1 μM, Calbiochem), or Sorafenib (1 μM) for one hour. For mRNA analysis, 5 μM of AβO was treated additional for 4 hours.
# [3] = inhibitor 1 μM pretreatment, AβO 5 μM, in words
Structure (SMILES),neuronal cell death induced by neurotoxic astrocytes [1],"mRNA levels of IL-6 ([2]; BV-2 microglia preincubated 1 h with inhibitor 1 μM, then AβO 5 μM 4 h, PBS = 1 ± 0.08, Abeta alone 12.53 ± 0.59, ±SD)","mRNA levels of C1q ([2]; BV-2 microglia preincubated 1 h with inhibitor 1 μM, then AβO 5 μM 4 h, PBS = 1 ± 0.13, Abeta alone 3.7 ± 0.06, ±SD)","mRNA levels of TNFα ([2]; BV-2 microglia preincubated 1 h with inhibitor 1 μM, then AβO 5 μM 4 h, PBS = 1 ± 0.16, Abeta alone 16.19 ± 3.21, ±SD)","microglial activation [2, 3]","release of multiple inflammatory mediators including C1q, IL-6 and TNFα [2, 3]"
COc1cc2ncnc(Nc3ccc(F)c(Cl)c3)c2cc1OCCCN1CCOCC1 [Gefitinib],significantly prevented neuronal cell death,–,–,–,–,–
"CC(C)(C)S(=O)(=O)c1ccc2nccc(Nc3n[nH]c4ccc(F)cc34)c2c1 [GSK583, 6-(tert-butylsulfonyl)-N-(5-fluoro-1H-indazol-3-yl) quinolin-4-amine]",significantly prevented neuronal cell death,4.89 ± 0.23,0.87 ± 0.14,3.23 ± 0.27,blocked microglial activation,significantly reduced
